Test system: MV-4-11 cells
Experiment: Gene expression microarray analysis (Affymetrix PrimeView) and GSEA
Type: cell-based, human
Set-up: RFU PODN (11730768_x_at) / Fold change /veh PODN (11730768_x_at) / RFU LINC00158 (11744669_a_at) / Fold change /veh LINC00158 (11744669_a_at) / RFU DUSP10 (11751237_a_at) / Fold change /veh DUSP10 (11751237_a_at) / RFU ID3 (11757404_x_at) / Fold change /veh ID3 (11757404_x_at) / RFU PLEKHG5 (11737974_s_at) / Fold change /veh PLEKHG5 (11737974_s_at) / RFU LRRC4B (11730491_at) / Fold change /veh LRRC4B (11730491_at) / RFU GIMAP4 (11747438_a_at) / Fold change /veh GIMAP4 (11747438_a_at) / RFU KRT8 (11758183_x_at) / Fold change /veh KRT8 (11758183_x_at) / RFU CNN1 (11734310_a_at) / Fold change /veh CNN1 (11734310_a_at) / RFU VPS37D (11726825_at) / Fold change /veh VPS37D (11726825_at) / RFU C10orf10 (11716522_x_at) / Fold change /veh C10orf10 (11716522_x_at) / RFU KIR2DL2 /// KIR2DL4 /// KIR2DL5A /// KIR2DL5B /// KIR2DS1 /// KIR2DS2 /// KIR2DS3 /// KIR2DS4 /// KIR3DL3 /// KIR3DL3 /// KIR3DS1 (11738374_at) / Fold change /veh KIR2DL2 /// KIR2DL4 /// KIR2DL5A /// KIR2DL5B /// KIR2DS1 /// KIR2DS2 /// KIR2DS3 /// KIR2DS4 /// KIR3DL3 /// KIR3DL3 /// KIR3DS1 (11738374_at) / RFU C1QL1 (11718748_at) / Fold change /veh C1QL1 (11718748_at) / RFU TMPRSS4 (11747572_a_at) / Fold change /veh TMPRSS4 (11747572_a_at) / RFU HAMP (11756126_x_at) / Fold change /veh HAMP (11756126_x_at) / RFU RNFT2 (11725882_a_at) / Fold change /veh RNFT2 (11725882_a_at) / RFU NR4A2 (11747474_a_at) / Fold change /veh NR4A2 (11747474_a_at) / RFU ABCC12 (11746883_a_at) / Fold change /veh ABCC12 (11746883_a_at) / RFU TMEM136 (11760407_x_at) / Fold change /veh TMEM136 (11760407_x_at) / RFU CLDN22 /// WWC2 (11732394_at) / Fold change /veh CLDN22 /// WWC2 (11732394_at) / RFU HLA-DPB1 (11760878_x_at) / Fold change /veh HLA-DPB1 (11760878_x_at) / RFU SPINT1 (11716480_a_at) / Fold change /veh SPINT1 (11716480_a_at) / RFU GAP43 (11754022_s_at) / Fold change /veh GAP43 (11754022_s_at) / RFU A4GNT (11735810_at) / Fold change /veh A4GNT (11735810_at) / RFU PRB3 (11715151_x_at) / Fold change /veh PRB3 (11715151_x_at) / RFU TUBB4B (11761932_at) / Fold change /veh TUBB4B (11761932_at) / RFU CAPN14 (11732068_a_at) / Fold change /veh CAPN14 (11732068_a_at) / RFU TMCC2 (11721928_a_at) / Fold change /veh TMCC2 (11721928_a_at) / RFU IRGQ (11745062_a_at) / Fold change /veh IRGQ (11745062_a_at) / RFU FAM174B (11720279_a_at) / Fold change /veh FAM174B (11720279_a_at) / RFU TMPRSS4 (11748680_a_at) / Fold change /veh TMPRSS4 (11748680_a_at) / RFU FAM212B (11763350_a_at) / Fold change /veh FAM212B (11763350_a_at) / RFU PLEKHG5 (11743358_a_at) / Fold change /veh PLEKHG5 (11743358_a_at) / RFU ZSCAN30 (11745921_a_at) / Fold change /veh ZSCAN30 (11745921_a_at) / RFU CMKLR1 (11741424_a_at) / Fold change /veh CMKLR1 (11741424_a_at) / RFU LOC101060620 /// MAPK8IP1 (11723275_at) / Fold change /veh LOC101060620 /// MAPK8IP1 (11723275_at) / RFU SPTSSB (11747773_x_at) / Fold change /veh SPTSSB (11747773_x_at) / RFU PRSS12 (11739890_at) / Fold change /veh PRSS12 (11739890_at) / RFU BIN1 (11741810_x_at) / Fold change /veh BIN1 (11741810_x_at) / RFU WNT11 (11732464_a_at) / Fold change /veh WNT11 (11732464_a_at) / RFU C10orf10 (11716521_a_at) / Fold change /veh C10orf10 (11716521_a_at) / RFU C5orf56 (11738089_at) / Fold change /veh C5orf56 (11738089_at) / RFU CYB561 (11721691_x_at) / Fold change /veh CYB561 (11721691_x_at) / RFU ANKRD19P (11752326_a_at) / Fold change /veh ANKRD19P (11752326_a_at) / RFU OR2T12 /// OR2T33 /// OR2T8 (11738714_s_at) / Fold change /veh OR2T12 /// OR2T33 /// OR2T8 (11738714_s_at) / RFU VCAN (11748164_a_at) / Fold change /veh VCAN (11748164_a_at) / RFU JSRP1 (11732532_at) / Fold change /veh JSRP1 (11732532_at) / RFU KRTAP10-11 (11738290_x_at) / Fold change /veh KRTAP10-11 (11738290_x_at) / RFU MYO3A (11730013_a_at) / Fold change /veh MYO3A (11730013_a_at) / RFU EBF3 (11725865_a_at) / Fold change /veh EBF3 (11725865_a_at) / RFU CAMK2N1 (11719241_x_at) / Fold change /veh CAMK2N1 (11719241_x_at) / RFU C5orf56 (11738088_a_at) / Fold change /veh C5orf56 (11738088_a_at) / RFU OLFML3 (11715873_a_at) / Fold change /veh OLFML3 (11715873_a_at) / RFU LOC100653217 /// NTM (11731650_a_at) / Fold change /veh LOC100653217 /// NTM (11731650_a_at) / RFU MAPK11 (11762145_a_at) / Fold change /veh MAPK11 (11762145_a_at) / RFU FIZ1 (11724087_x_at) / Fold change /veh FIZ1 (11724087_x_at) / RFU OASL (11726364_x_at) / Fold change /veh OASL (11726364_x_at) / RFU SOX15 (11748057_x_at) / Fold change /veh SOX15 (11748057_x_at) / RFU CD79A (11719716_a_at) / Fold change /veh CD79A (11719716_a_at) / RFU HIST1H1D (11736915_at) / Fold change /veh HIST1H1D (11736915_at) / RFU CASKIN2 (11723855_a_at) / Fold change /veh CASKIN2 (11723855_a_at) / RFU LOC730098 (11760151_x_at) / Fold change /veh LOC730098 (11760151_x_at) / RFU OR4N2 (11742367_at) / Fold change /veh OR4N2 (11742367_at) / RFU PRRT2 (11749266_a_at) / Fold change /veh PRRT2 (11749266_a_at) / RFU SNX32 (11753110_a_at) / Fold change /veh SNX32 (11753110_a_at) / RFU CDHR5 (11726645_a_at) / Fold change /veh CDHR5 (11726645_a_at) / RFU RCAN1 (11760418_a_at) / Fold change /veh RCAN1 (11760418_a_at) / RFU FAM167A (11723789_a_at) / Fold change /veh FAM167A (11723789_a_at) / RFU FAM26E (11764081_at) / Fold change /veh FAM26E (11764081_at) / RFU ISYNA1 (11749810_s_at) / Fold change /veh ISYNA1 (11749810_s_at) / RFU ACY1 (11761880_at) / Fold change /veh ACY1 (11761880_at) / RFU 11764098_at / Fold change /veh 11764098_at / RFU SAMD14 (11745864_x_at) / Fold change /veh SAMD14 (11745864_x_at) / RFU NPB (11741838_a_at) / Fold change /veh NPB (11741838_a_at) / RFU TMPRSS6 (11731388_a_at) / Fold change /veh TMPRSS6 (11731388_a_at) / RFU KRTAP10-2 (11738614_at) / Fold change /veh KRTAP10-2 (11738614_at) / RFU ARHGAP8 /// PRR5-ARHGAP8 (11727945_x_at) / Fold change /veh ARHGAP8 /// PRR5-ARHGAP8 (11727945_x_at) / RFU KRTAP5-7 /// NADSYN1 (11734609_at) / Fold change /veh KRTAP5-7 /// NADSYN1 (11734609_at) / RFU RASL12 (11751679_a_at) / Fold change /veh RASL12 (11751679_a_at) / RFU CDKN2B (11736163_a_at) / Fold change /veh CDKN2B (11736163_a_at) / RFU PRF1 (11729649_at) / Fold change /veh PRF1 (11729649_at) / RFU, ZNF638 /// ZNF638-IT1 / Fold change vs veh, ZNF638 /// ZNF638-IT1 / RFU, PANK3 / Fold change vs veh, PANK3 / RFU, SH3YL1 / Fold change vs veh, SH3YL1 / RFU, ZEB2 / Fold change vs veh, ZEB2 / RFU, NRIP1 / Fold change vs veh, NRIP1 / RFU, PTTG1IP / Fold change vs veh, PTTG1IP / RFU, CAPN2 / Fold change vs veh, CAPN2 / RFU, MED14 / Fold change vs veh, MED14 / RFU, SNORA58 / Fold change vs veh, SNORA58 / RFU, C1orf63 / Fold change vs veh, C1orf63 / RFU, LRRFIP1 / Fold change vs veh, LRRFIP1 / RFU, NDUFAF7 / Fold change vs veh, NDUFAF7 / RFU, SLC12A2 / Fold change vs veh, SLC12A2 / RFU, IBTK / Fold change vs veh, IBTK / RFU, ESF1 / Fold change vs veh, ESF1 / Fold change vs veh, TMEM50B / RFU, TAOK1 / Fold change vs veh, TAOK1 / RFU, ACBD3 / Fold change vs veh, ACBD3 / RFU, TMA16 / Fold change vs veh, TMA16 / RFU, RWDD3 / Fold change vs veh, RWDD3 / RFU, BCAT1 / Fold change vs veh, BCAT1 / RFU, EDEM3 / Fold change vs veh, EDEM3 / RFU, TMEM33 / Fold change vs veh, TMEM33 / RFU, WDR75 / Fold change vs veh, WDR75 / RFU, AHCTF1 / Fold change vs veh, AHCTF1 / RFU, TFRC / Fold change vs veh, TFRC / RFU, ZDHHC17 / Fold change vs veh, ZDHHC17 / RFU, NOM1 / Fold change vs veh, NOM1 / RFU, ARL8B / Fold change vs veh, ARL8B / RFU, ZBTB11 / Fold change vs veh, ZBTB11 / RFU, TAMM41 / Fold change vs veh, TAMM41 / RFU, KIAA1704 /// LOC100996395 / Fold change vs veh, KIAA1704 /// LOC100996395 / RFU, ING1 / Fold change vs veh, ING1 / RFU, TRMT61B / Fold change vs veh, TRMT61B / RFU, FUBP3 / Fold change vs veh, FUBP3 / RFU, TP53 / Fold change vs veh, TP53 / RFU, TNKS2 / Fold change vs veh, TNKS2 / RFU, ZFP14 / Fold change vs veh, ZFP14 / RFU, ACTR2 / Fold change vs veh, ACTR2 / RFU, PPP3R1 / Fold change vs veh, PPP3R1 / RFU, PIK3R1 / Fold change vs veh, PIK3R1 / RFU, HNRNPA1 / Fold change vs veh, HNRNPA1 / RFU, RNF170 / Fold change vs veh, RNF170 / RFU, ZNF28 / Fold change vs veh, ZNF28 / RFU, RNGTT / Fold change vs veh, RNGTT / RFU, OGT / Fold change vs veh, OGT / RFU, BRD1 / Fold change vs veh, BRD1 / RFU, MARS / Fold change vs veh, MARS / RFU, ZNF655 / Fold change vs veh, ZNF655 / RFU, FAHD1 / Fold change vs veh, FAHD1 / RFU, BDP1 / Fold change vs veh, BDP1 / RFU, LRRCC1 / Fold change vs veh, LRRCC1 / RFU, ARID1A / Fold change vs veh, ARID1A / RFU, ZNF146 / Fold change vs veh, ZNF146 / RFU, ZNF330 / Fold change vs veh, ZNF330 / RFU, GPN3 / Fold change vs veh, GPN3 / RFU, C9orf123 / Fold change vs veh, C9orf123 / RFU, N4BP2L2 / Fold change vs veh, N4BP2L2 / RFU, ARFIP1 / Fold change vs veh, ARFIP1 / RFU, FAM179B / Fold change vs veh, FAM179B / RFU, BCL10 / Fold change vs veh, BCL10 / RFU, UHRF1BP1L / Fold change vs veh, UHRF1BP1L / RFU, BET1 / Fold change vs veh, BET1 / RFU, CNOT2 / Fold change vs veh, CNOT2 / RFU, ZNF268 / Fold change vs veh, ZNF268 / Fold change vs veh, ZNF507 / RFU, DGCR2 / Fold change vs veh, DGCR2 / RFU, WDSUB1 / Fold change vs veh, WDSUB1 / Fold change vs veh, HSP90B1 /// MIR3652 / RFU, ADSS / Fold change vs veh, ADSS / RFU, GK / Fold change vs veh, GK / RFU, ZNF148 / Fold change vs veh, ZNF148 / RFU, TAF9 / Fold change vs veh, TAF9 / RFU, SLC1A5 / Fold change vs veh, SLC1A5 / RFU, SLMO2 / Fold change vs veh, SLMO2 / RFU, ABCC4 / Fold change vs veh, ABCC4 / RFU, LOC101060439 /// RAP1B / Fold change vs veh, LOC101060439 /// RAP1B / RFU, RFX7 / Fold change vs veh, RFX7 / RFU, GTPBP10 / Fold change vs veh, GTPBP10 / RFU, CNEP1R1 / Fold change vs veh, CNEP1R1 / RFU, BIVM-ERCC5 /// ERCC5 / Fold change vs veh, BIVM-ERCC5 /// ERCC5 / RFU, ILF3 / Fold change vs veh, ILF3 / RFU 11762660_at / Fold change /veh 11762660_at / RFU VCAN (11757783_s_at) / Fold change /veh VCAN (11757783_s_at) / RFU DDX43 (11728927_at) / Fold change /veh DDX43 (11728927_at) / RFU KRT8 (11758188_x_at) / Fold change /veh KRT8 (11758188_x_at) / RFU NKD1 (11759106_at) / Fold change /veh NKD1 (11759106_at) / RFU SRD5A1 (11742802_a_at) / Fold change /veh SRD5A1 (11742802_a_at) / RFU TPSAB1 /// TPSB2 (11721975_s_at) / Fold change /veh TPSAB1 /// TPSB2 (11721975_s_at) / RFU GSTM3 (11746129_a_at) / Fold change /veh GSTM3 (11746129_a_at) / RFU IL23R (11737362_x_at) / Fold change /veh IL23R (11737362_x_at) / RFU TMEM51 (11727254_a_at) / Fold change /veh TMEM51 (11727254_a_at) / RFU PIWIL2 (11732686_x_at) / Fold change /veh PIWIL2 (11732686_x_at) / RFU ORM1 (11744905_x_at) / Fold change /veh ORM1 (11744905_x_at) / RFU CCDC152 (11743942_at) / Fold change /veh CCDC152 (11743942_at) / RFU ECM1 (11717891_a_at) / Fold change /veh ECM1 (11717891_a_at) / RFU IL23R (11748794_a_at) / Fold change /veh IL23R (11748794_a_at) / RFU TNFAIP8L3 (11732012_x_at) / Fold change /veh TNFAIP8L3 (11732012_x_at) / RFU MBOAT4 (11741988_at) / Fold change /veh MBOAT4 (11741988_at) / RFU 11764193_at / Fold change /veh 11764193_at / RFU TMEM53 (11763286_at) / Fold change /veh TMEM53 (11763286_at) / RFU MAGEB2 (11727129_at) / Fold change /veh MAGEB2 (11727129_at) / RFU TMEM200A (11744735_a_at) / Fold change /veh TMEM200A (11744735_a_at) / RFU CCDC152 (11751479_a_at) / Fold change /veh CCDC152 (11751479_a_at) / RFU FAM211A (11726209_a_at) / Fold change /veh FAM211A (11726209_a_at) / RFU RGS16 (11746705_a_at) / Fold change /veh RGS16 (11746705_a_at) / RFU VCAN (11755009_s_at) / Fold change /veh VCAN (11755009_s_at) / RFU RHOB (11743442_s_at) / Fold change /veh RHOB (11743442_s_at) / RFU RGS16 (11720943_a_at) / Fold change /veh RGS16 (11720943_a_at) / RFU RGS16 (11720944_at) / Fold change /veh RGS16 (11720944_at) / RFU, VPS4B / Fold change vs veh, VPS4B / RFU, CREB1 / Fold change vs veh, CREB1 / RFU, DNAJC13 / Fold change vs veh, DNAJC13 / RFU, GNAQ / Fold change vs veh, GNAQ / RFU, CDK5R1 / Fold change vs veh, CDK5R1 / RFU, ZRANB3 / Fold change vs veh, ZRANB3 / RFU, CUL4A / Fold change vs veh, CUL4A / RFU, CCNY / Fold change vs veh, CCNY / RFU, UFL1 / Fold change vs veh, UFL1 / RFU, COG3 / Fold change vs veh, COG3 / RFU, DIAPH2 / Fold change vs veh, DIAPH2 / RFU, SKA2 / Fold change vs veh, SKA2 / RFU, AFF3 / Fold change vs veh, AFF3 / RFU, LMF1 / Fold change vs veh, LMF1 / RFU, IPO11 / Fold change vs veh, IPO11 / RFU, DFFB / Fold change vs veh, DFFB / RFU, FOXP1 / Fold change vs veh, FOXP1 / RFU, CARD8 / Fold change vs veh, CARD8 / RFU, STRN3 / Fold change vs veh, STRN3 / RFU, ADK / Fold change vs veh, ADK / RFU, RASSF2 / Fold change vs veh, RASSF2 / RFU, WIPF1 / Fold change vs veh, WIPF1 / RFU, LARP1B / Fold change vs veh, LARP1B / RFU, RASA1 / Fold change vs veh, RASA1 / RFU, RB1 / Fold change vs veh, RB1 / RFU, PPFIA1 / Fold change vs veh, PPFIA1 / RFU, MAT2A / Fold change vs veh, MAT2A / RFU, CCT5 / Fold change vs veh, CCT5 / RFU, WDR92 / Fold change vs veh, WDR92 / RFU, CUX1 / Fold change vs veh, CUX1 / RFU, TTC7A / Fold change vs veh, TTC7A / RFU, TMEM135 / Fold change vs veh, TMEM135 / RFU, DEPTOR / Fold change vs veh, DEPTOR / RFU, CPM / Fold change vs veh, CPM / RFU, DNAJB6 / Fold change vs veh, DNAJB6 / RFU, CACNA2D3 / Fold change vs veh, CACNA2D3 / RFU, DTX4 / Fold change vs veh, DTX4 / RFU, TFCP2 / Fold change vs veh, TFCP2 / RFU, GMCL1 /// GMCL1P1 / Fold change vs veh, GMCL1 /// GMCL1P1 / RFU, AEBP2 / Fold change vs veh, AEBP2 / RFU, SNHG1 /// SNORD22 /// SNORD25 /// SNORD26 /// SNORD27 /// SNORD28 /// SNORD29 /// SNORD31 / Fold change vs veh, SNHG1 /// SNORD22 /// SNORD25 /// SNORD26 /// SNORD27 /// SNORD28 /// SNORD29 /// SNORD31 / Fold change (Aza/veh), C12orf56 (ProbeSet 11735607_a_at) / Fold change (ACY-1035/veh), C12orf56 (ProbeSet 11735607_a_at) / Fold change (Aza/veh), FGFR1OP (ProbeSet 11751329_s_at) / Fold change (ACY-1035/veh), FGFR1OP (ProbeSet 11751329_s_at) / Fold change (Aza/veh), VPS36 (ProbeSet 11739960_a_at) / Fold change (ACY-1035/veh), VPS36 (ProbeSet 11739960_a_at) / RFU SYPL1 (11715823_x_at) / Fold change /veh SYPL1 (11715823_x_at) / RFU IGFBP7 (11715501_s_at) / Fold change /veh IGFBP7 (11715501_s_at) / RFU REEP3 (11722064_at) / Fold change /veh REEP3 (11722064_at) / RFU IGLL1 (11728026_x_at) / Fold change /veh IGLL1 (11728026_x_at): dose or concentration left out as unconfirmed
Conditions: MV-4-11 cells, 48 hours

Nc1ccc(-c2cccs2)cc1NC(=O)c1ccc2c(c1)cc(C1CC1)n2CCN1CCOCC1 [ACY-1035]
Fold change /veh HLA-DPB1 (11760878_x_at): 1.16

From publication PMC5218480 (PLoS ONE, 2017)
